{
  "source": "ChEMBL document CHEMBL1201862",
  "about": "“PubChem BioAssay data set” (2004)",
  "molecular_target": "T1, Ubiquitin-conjugating enzyme E2 N (Homo sapiens, UniProt P61088)",
  "T1 sequence (P61088 whole entry)": "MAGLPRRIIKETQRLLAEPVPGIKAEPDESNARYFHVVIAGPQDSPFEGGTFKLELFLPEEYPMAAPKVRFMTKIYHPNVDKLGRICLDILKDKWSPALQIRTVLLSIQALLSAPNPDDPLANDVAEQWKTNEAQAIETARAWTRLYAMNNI",
  "type": "functional",
  "note": "The source made the active and inactive calls. Cut-off read from the data, not from the text of the source: actives have a measured IC50 and inactives only a lower limit.",
  "data": [
    {"smiles": "CCOC(=O)c1c(-c2ccc(-c3ccccc3)cc2)csc1NC(=O)CNCCN(C)C", "values": [
      {"measurement": "IC50", "value": "10.1 µM (active)"}
    ]}
  ]
}
